In assay [1] the test system is MMP-9. Nature of the assay: Substrate phage display with NGS: relative probability (RP) of P3-P1' tetramer clusters.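 Further: ratio of tetramer probability after protease selection to that in naive phage library.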 The assay is classed as biochemical, human. Particulars: MMP9; RP of the substrate's P3-P1' tetramer, substrate phage display with NGS.
For assay [2], the target named is MMP-9 (Homo sapiens, UniProt P14780). The assay can be described thus: K(obs) of individual phage substrates (set of 1369). It is filed as biochemical. Particulars: MMP9; individual phage substrate of the set of 1369 peptides; dash in sequence marks cleavage position.
A further assay concerns the target T1, MMP-2 (Homo sapiens, UniProt P08253).
T1 sequence (P08253 110-660): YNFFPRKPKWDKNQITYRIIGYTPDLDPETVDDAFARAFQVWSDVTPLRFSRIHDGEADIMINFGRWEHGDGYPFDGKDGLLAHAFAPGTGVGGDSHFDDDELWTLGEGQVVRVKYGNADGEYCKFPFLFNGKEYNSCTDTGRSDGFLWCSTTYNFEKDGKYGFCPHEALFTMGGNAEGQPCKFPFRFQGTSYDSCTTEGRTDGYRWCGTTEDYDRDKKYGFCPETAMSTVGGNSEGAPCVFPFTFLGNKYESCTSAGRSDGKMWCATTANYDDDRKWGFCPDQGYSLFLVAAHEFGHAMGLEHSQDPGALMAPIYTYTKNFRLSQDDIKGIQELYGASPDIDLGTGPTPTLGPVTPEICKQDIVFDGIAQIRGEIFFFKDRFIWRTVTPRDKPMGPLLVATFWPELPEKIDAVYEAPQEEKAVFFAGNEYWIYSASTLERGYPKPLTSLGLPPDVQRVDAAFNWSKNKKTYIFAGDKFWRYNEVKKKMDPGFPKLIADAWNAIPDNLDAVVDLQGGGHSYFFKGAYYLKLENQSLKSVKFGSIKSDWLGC
The description is as above. Particulars: MMP2; individual phage substrate from the set of 1369 peptides; hyphen in the sequence marks the cleavage position. It is filed as biochemical.

Chain of MMP-9 (Homo sapiens, UniProt P14780) (P14780 94-707): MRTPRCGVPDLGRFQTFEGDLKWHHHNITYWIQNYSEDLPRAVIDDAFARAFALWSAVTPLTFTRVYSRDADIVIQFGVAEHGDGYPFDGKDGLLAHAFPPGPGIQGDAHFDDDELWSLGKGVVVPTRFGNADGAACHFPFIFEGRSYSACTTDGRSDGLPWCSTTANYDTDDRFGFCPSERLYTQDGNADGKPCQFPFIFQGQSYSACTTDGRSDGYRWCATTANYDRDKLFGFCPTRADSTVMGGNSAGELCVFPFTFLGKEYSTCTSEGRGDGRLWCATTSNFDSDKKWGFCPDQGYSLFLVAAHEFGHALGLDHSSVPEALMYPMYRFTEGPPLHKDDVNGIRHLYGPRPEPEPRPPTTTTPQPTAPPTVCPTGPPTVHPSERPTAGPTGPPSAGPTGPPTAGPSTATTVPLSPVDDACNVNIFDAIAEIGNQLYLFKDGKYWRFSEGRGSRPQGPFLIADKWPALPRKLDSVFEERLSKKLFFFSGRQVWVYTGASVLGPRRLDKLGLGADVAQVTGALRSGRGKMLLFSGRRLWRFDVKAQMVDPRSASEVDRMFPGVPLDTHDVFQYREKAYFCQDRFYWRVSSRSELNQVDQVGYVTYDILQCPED

Turning to QMPLQ-ITASG, the “relative probability (RP)” value in the assay on MMP-9 [1] was determined as 44.6329. Also, the “Kobs” value was 6131.32 M⁻¹ s⁻¹ at MMP-9 [2] and 8941.32 M⁻¹ s⁻¹ at MMP-2.
The corresponding values for QPPHA-FTASG are 39.4048, 12792.1 M⁻¹ s⁻¹ and 12792.1 M⁻¹ s⁻¹.
For QRPMD-LTASG the same measures were 44.1549, 12792.1 M⁻¹ s⁻¹ and 12792.1 M⁻¹ s⁻¹.
The corresponding values for QRVAA-VTASG are 0.4709, 0 M⁻¹ s⁻¹ and 4082.43 M⁻¹ s⁻¹.
Turning to QRVRG-VTASG, the “relative probability (RP)” value with MMP-9 [1] stood at 13.8249. The entries for the “Kobs” value at MMP-9 [2] and on MMP-2 were 619.843 M⁻¹ s⁻¹ and 1327.88 M⁻¹ s⁻¹, respectively.
For QRWFA-LTASG the same measures were 14.7831, 6688.74 M⁻¹ s⁻¹ and 2038.8 M⁻¹ s⁻¹.
In the case of QVPRR-LTASG, the “relative probability (RP)” value with MMP-9 [1] is listed as 2.666. Besides, the entries for the “Kobs” value on MMP-9 [2] and on MMP-2 were 10866.7 M⁻¹ s⁻¹ and 12792.1 M⁻¹ s⁻¹, respectively.
The corresponding values for RAPLP-VTASG are 40.8342, 12792.1 M⁻¹ s⁻¹ and 12792.1 M⁻¹ s⁻¹.
For RAPVA-FTASG the same measures were 39.0112, 12792.1 M⁻¹ s⁻¹ and 12792.1 M⁻¹ s⁻¹.
For RDLGF-LTASG the same measures were 3.437, 0 M⁻¹ s⁻¹ and 12792.1 M⁻¹ s⁻¹.
As for RDMSY-LTASG, the “relative probability (RP)” value in the assay with MMP-9 [1] is on record as 0.7522. The results for the “Kobs” value on MMP-9 [2] and on MMP-2 were 0 M⁻¹ s⁻¹ and 4335.13 M⁻¹ s⁻¹, respectively.
With RFPLK-VTASG, the “relative probability (RP)” value in the assay with MMP-9 [1] is listed as 22.8859. For the same substance, the “Kobs” value amounted to 3438.54 M⁻¹ s⁻¹ on MMP-9 [2] and 0 M⁻¹ s⁻¹ on MMP-2.
For RGPSS-YTASG the same measures were 41.6306, 12792.1 M⁻¹ s⁻¹ and 12792.1 M⁻¹ s⁻¹.
For RHPSH-FTASG the same measures were 26.7767, 6688.74 M⁻¹ s⁻¹ and 12792.1 M⁻¹ s⁻¹.
For RKLAF-LTASG, the “relative probability (RP)” value with MMP-9 [1] is 0.6348. Besides, the “Kobs” value came to 726.013 M⁻¹ s⁻¹ on MMP-9 [2] and 12792.1 M⁻¹ s⁻¹ on MMP-2.
RLPIN-LTASG: in the assay with MMP-9 [1], the “relative probability (RP)” value came out at 44.8884. Besides, the “Kobs” value on MMP-9 [2] and at MMP-2 was 12792.1 M⁻¹ s⁻¹ in each case.
For the substance RLPKL-LTASG, the “relative probability (RP)” value with MMP-9 [1] is 35.7561. In addition, the results for the “Kobs” value on MMP-9 [2] and on MMP-2 were 6688.74 M⁻¹ s⁻¹ and 1816.46 M⁻¹ s⁻¹, respectively.
The corresponding values for RLPYP-LTASG are 48.6636, 12792.1 M⁻¹ s⁻¹ and 12792.1 M⁻¹ s⁻¹.
The corresponding values for RLVNW-MTASG are 19.0749, 2687.73 M⁻¹ s⁻¹ and 3850.82 M⁻¹ s⁻¹.
For RMPRQ-VTASG, in the assay with MMP-9 [1], the “relative probability (RP)” value is listed as 25.107. The figures for the “Kobs” value on MMP-9 [2] and on MMP-2 were 1981.53 M⁻¹ s⁻¹ and 1196.62 M⁻¹ s⁻¹, respectively.
The corresponding values for RMWRA-FTASG are 17.7749, 4922.1 M⁻¹ s⁻¹ and 4205.91 M⁻¹ s⁻¹.
For RQPFL-LTASG the same measures were 33.1122, 12792.1 M⁻¹ s⁻¹ and 1154.21 M⁻¹ s⁻¹.
For RQPRN-VTASG the same measures were 40.3866, 12792.1 M⁻¹ s⁻¹ and 6131.32 M⁻¹ s⁻¹.
On to RRPSA-LTASG, for which, in the assay on MMP-9 [1], the “relative probability (RP)” value is 47.6113. For the same substance, the figures for the “Kobs” value at MMP-9 [2] and at MMP-2 were 10866.7 M⁻¹ s⁻¹ and 12792.1 M⁻¹ s⁻¹, respectively.
The corresponding values for RRPVA-YTASG are 47.2844, 12792.1 M⁻¹ s⁻¹ and 12792.1 M⁻¹ s⁻¹.
The corresponding values for RTPKG-LTASG are 48.4124, 12792.1 M⁻¹ s⁻¹ and 12792.1 M⁻¹ s⁻¹.
For RVPVP-MTASG the same measures were 46.3561, 9740.44 M⁻¹ s⁻¹ and 2038.8 M⁻¹ s⁻¹.
On to RVVAN-LTASG, for which, in the assay on MMP-9 [1], the “relative probability (RP)” value worked out at 32.1971. Besides, the “Kobs” value at MMP-9 [2] was 4922.1 M⁻¹ s⁻¹; at MMP-2, 12792.1 M⁻¹ s⁻¹.
The corresponding values for SCVRM-MTASG are 24.5728, 1561.44 M⁻¹ s⁻¹ and 1373.05 M⁻¹ s⁻¹.
The corresponding values for SDVRF-LTASG are 26.3541, 5889.62 M⁻¹ s⁻¹ and 9740.44 M⁻¹ s⁻¹.
For SGALN-FYSTA the same measures were 19.1713, 8941.32 M⁻¹ s⁻¹ and 2761.81 M⁻¹ s⁻¹.
Take SGASN-LRGTA: the “relative probability (RP)” value in the assay on MMP-9 [1] is 27.6194. Moreover, the “Kobs” value at MMP-9 [2] and on MMP-2 was 12792.1 M⁻¹ s⁻¹ each time.
Turning to SGAYN-FQATA, the “relative probability (RP)” value in the assay on MMP-9 [1] is 19.0941. For the same substance, the “Kobs” value came to 12792.1 M⁻¹ s⁻¹ on MMP-9 [2] and 3438.54 M⁻¹ s⁻¹ at MMP-2.
On to SGISA-LRKTA, for which, in the assay with MMP-9 [1], the “relative probability (RP)” value was 16.3812. Moreover, the “Kobs” value turned out to be 0 M⁻¹ s⁻¹ at MMP-9 [2] and 6688.74 M⁻¹ s⁻¹ on MMP-2.
The corresponding values for SGISW-MRHTA are 21.4, 2476.66 M⁻¹ s⁻¹ and 7815.03 M⁻¹ s⁻¹.
For SGPAS-FSVTA the same measures were 30.2578, 2344.36 M⁻¹ s⁻¹ and 12792.1 M⁻¹ s⁻¹.
For SGPAS-LLNTA the same measures were 46.2982, 9740.44 M⁻¹ s⁻¹ and 12792.1 M⁻¹ s⁻¹.
On to SGPAS-VRNTA, for which the “relative probability (RP)” value in the assay on MMP-9 [1] turned out to be 25.8589. The “Kobs” value on MMP-9 [2] is 2837.92 M⁻¹ s⁻¹; on MMP-2 it was 12792.1 M⁻¹ s⁻¹.
For SGPFS-NRATA the same measures were 1.097, 2687.73 M⁻¹ s⁻¹ and 292.668 M⁻¹ s⁻¹.
The corresponding values for SGPGA-MMFTA are 36.3159, 5090.5 M⁻¹ s⁻¹ and 12792.1 M⁻¹ s⁻¹.
The corresponding values for SGPHY-LMMTA are 37.3972, 6688.74 M⁻¹ s⁻¹ and 6396.07 M⁻¹ s⁻¹.
For the substance SGPKF-LVMTA, in the assay on MMP-9 [1], the “relative probability (RP)” value came to 42.7484. For the same substance, the figures for the “Kobs” value at MMP-9 [2] and on MMP-2 were 12792.1 M⁻¹ s⁻¹ and 1981.53 M⁻¹ s⁻¹, respectively.
The corresponding values for SGPKG-MRMTA are 48.8441, 12792.1 M⁻¹ s⁻¹ and 9740.44 M⁻¹ s⁻¹.
For SGPKL-LTASG the same measures were 35.7561, 12792.1 M⁻¹ s⁻¹ and 5090.5 M⁻¹ s⁻¹.
The corresponding values for SGPKL-LYGTA are 35.7561, 12792.1 M⁻¹ s⁻¹ and 4205.91 M⁻¹ s⁻¹.
SGPKQ-LRVTA: the “relative probability (RP)” value with MMP-9 [1] worked out at 43.3387. In addition, the “Kobs” value on MMP-9 [2] and at MMP-2 was 12792.1 M⁻¹ s⁻¹ each time.
SGPKW-MRHTA: the “relative probability (RP)” value in the assay on MMP-9 [1] was 51.5185. Besides, the “Kobs” value on MMP-9 [2] came to 4922.1 M⁻¹ s⁻¹; on MMP-2, 2409.72 M⁻¹ s⁻¹.
As to SGPLK-ITRTA, the “relative probability (RP)” value in the assay with MMP-9 [1] was found to be 38.9391. Besides, the “Kobs” value is 2837.92 M⁻¹ s⁻¹ on MMP-9 [2] and 0 M⁻¹ s⁻¹ on MMP-2.
The corresponding values for SGPQW-MINTA are 45.9264, 4613.14 M⁻¹ s⁻¹ and 6131.32 M⁻¹ s⁻¹.
The corresponding values for SGPRA-VSATA are 40.8515, 12792.1 M⁻¹ s⁻¹ and 12792.1 M⁻¹ s⁻¹.
Consider SGPRD-ILATA, for which the “relative probability (RP)” value in the assay with MMP-9 [1] is reported as 41.2501. Further, the “Kobs” value at MMP-9 [2] and at MMP-2 was 12792.1 M⁻¹ s⁻¹ each time.
Regarding SGPRF-LIGTA, the “relative probability (RP)” value in the assay with MMP-9 [1] came to 42.4535. Also, the “Kobs” value on MMP-9 [2] stood at 6131.32 M⁻¹ s⁻¹; on MMP-2 it was 3964.21 M⁻¹ s⁻¹.
For SGPRF-LLDTA the same measures were 42.4535, 7386.83 M⁻¹ s⁻¹ and 5889.62 M⁻¹ s⁻¹.
With SGPRG-MKTTA, the “relative probability (RP)” value in the assay with MMP-9 [1] was 47.6962. Besides, the entries for the “Kobs” value at MMP-9 [2] and on MMP-2 were 7815.03 M⁻¹ s⁻¹ and 1418.96 M⁻¹ s⁻¹, respectively.

For the origin of these results see paper PMC7932537, “Quantitative profiling of protease specificity” (PLoS Computational Biology, 2021).
